Columns and labels:
[1] = test system: CHIKV; assay: microbe, parasite or virus in culture; assay type: cell-based, chikungunya virus; details: Chikungunya virus, HEK293; HEK-293 cells pretreated with dilutions of each drug, CHIKV-GFP, 18 h p.i.
[2] = test system: HEK-293 cells; assay: Cell viability, Cell Proliferation Reagent WST-1; assay type: cell-based, human; details: Homo sapiens, HEK293, 18 h, read-out: WST-1 IC50
Description: To exclude the possible cytotoxic effects, all compounds were additionally tested using the ‘Cell Proliferation Reagent WST-1' (Roche Diagnostics). HEK-293 cells were treated with the same concentrations of the various substances and 18 h later WST-1 was added. Readout was conducted using the EnVision Multilabel Reader (PerkinElmer).

[3] = test system: CHIKV; assay type: cell-based, chikungunya virus

Molecule | Score_si4 [3] | Score_si3 [3] | further results
O=c1cc(-c2ccccc2)oc2ccc(O)cc12 [6-Hydroxyflavone] | – | – | IC50 [1]: 2600 nM; IC50 [2]: > 60000 nM
s30118 (CCTGCTATCTTGGTTCCAA; chemistry not given here) | 0.62 | – | –
s30606 (CAGTGATGGTGATTCAGAT; chemistry not given here) | 0.49 | – | –
s31180 (CCATAGATGAGAAGCGGTT; chemistry not given here) | – | 1.93 | –
s31181 (CCACTCGTTTTGACTATTA; chemistry not given here) | 1.82 | – | –
s31191 (GATAATCAGTTCAACTAAA; chemistry not given here) | – | – | Score_si2 [3]: 1.84
s31192 (GGAAGGACTTACTACTACA; chemistry not given here) | – | 1.79 | –
s31193 (GGAATGATGTCGTCAGTAA; chemistry not given here) | 1.58 | – | –
s31318 (GTACATCTTCGAATACGAT; chemistry not given here) | – | – | Score_si2 [3]: 1.43
s31658 (CGGCCTCTGAGGTGATCAA; chemistry not given here) | – | – | Score_si2 [3]: 1.55
s31659 (CCTCTGAGGTGATCAATGA; chemistry not given here) | – | 1.43 | –
s31660 (CTGTCACACTCACTGAAAA; chemistry not given here) | – | – | Score_si1 [3]: 1.8
s31789 (AGGACATTATCAACCCGGA; chemistry not given here) | – | 1.5 | –
s31790 (GGCTGTTCCTGAGACTGCA; chemistry not given here) | 0.92 | – | –
s31791 (GACCTTAAGATACCAGTAT; chemistry not given here) | – | – | Score_si2 [3]: 1.71
s31800 (CCACACTCATCTATCGCAA; chemistry not given here) | – | – | Score_si2 [3]: 1.32
s32095 (CAGAAACGATCTACAAGAA; chemistry not given here) | 1.53 | – | –
s32096 (GTTCCAGTATGGGAATTAT; chemistry not given here) | – | 1.63 | –
s32097 (ACAGCGCAAGTTCCAGTAT; chemistry not given here) | – | – | Score_si2 [3]: 1.75
s32489 (GGAACAAGCTGTGATCCCA; chemistry not given here) | – | – | Score_si1 [3]: 1.66
s32491 (GCCTGTATATGAGAGCCTT; chemistry not given here) | 0.05 | – | –

Molecule | Score_si4 [3] | Score_si3 [3] | further results
s33487 (GGTTATCAATGACGAGCAA; chemistry not given here) | – | 1.7 | –
s33488 (CCACCTAGCTTGTAACGAA; chemistry not given here) | 1.58 | – | –
s33489 (GGACTTCTGAAAATTCGCA; chemistry not given here) | – | – | Score_si2 [3]: 1.9
s33581 (GTACTTATATGAACGTATT; chemistry not given here) | 1.43 | – | –
s33582 (CACCTAGAGTACGAAAACA; chemistry not given here) | – | – | Score_si1 [3]: 1.69
s34427 (GGTCAGAGACCATCCAGAA; chemistry not given here) | – | – | Score_si2 [3]: 1.71
s34429 (CTCCTGCCTTGAGCCCTTA; chemistry not given here) | 0.3 | – | –
s34678 (GAGTTTAAGATGATGCCTA; chemistry not given here) | – | 0.6 | –
s34679 (GGAAAGAAGGGAATGAGTT; chemistry not given here) | – | – | Score_si2 [3]: 1.1
s35016 (CCTGATCCACGAGAAGTCA; chemistry not given here) | – | – | Score_si2 [3]: 1.63
s35017 (AAGACAGGCTGATCAACTA; chemistry not given here) | – | 0.94 | –
s35018 (GTGTGAAGGTAGACCGTGA; chemistry not given here) | 0.46 | – | –
s35330 (CGGTGACTATGAAAGAAAT; chemistry not given here) | 0.15 | – | –
s35331 (GCAGGTAATCTCTATACTA; chemistry not given here) | – | – | Score_si2 [3]: 1.81
s35332 (CAGGTATTCAGGTCCATGA; chemistry not given here) | – | 0.27 | –
s35400 (ACGCAGAGGCGGGAACAAA; chemistry not given here) | – | 0.6 | –
s35401 (GGAACAAACTAGCCCTCAA; chemistry not given here) | – | – | Score_si2 [3]: 0.91
s36691 (CAGATGTTATGGATATAAT; chemistry not given here) [reference compound] | – | – | Score_si1 [3]: -1.07
s36692 (GGCTATTGATTGTCCACAT; chemistry not given here) [reference compound] | -0.43 | – | –
s37713 (GAACCTCCTTCGGGATAAA; chemistry not given here) | – | 0.52 | –
s37714 (GCTCCTCAAAGGATATGAA; chemistry not given here) | -0.71 | – | –

Molecule | Score_si4 [3] | Score_si3 [3] | further results
s37715 (CCGGAGAACCTGAAACTCA; chemistry not given here) | – | – | Score_si2 [3]: 1.43
s37726 (ACTTTTCCCTCTCTCCTAA; chemistry not given here) | – | 0.28 | –
s37727 (GTAGCAGTGTGGTAGGATA; chemistry not given here) | -0.44 | – | –
s37917 (GCCTCAGCTCAAACTCAAA; chemistry not given here) | – | – | Score_si2 [3]: 1.72
s37918 (GAAGAGCACAAGAACCAGA; chemistry not given here) | – | 0.93 | –
s38241 (TCCTTTTCCATGTACCAGA; chemistry not given here) | 0.18 | – | –
s38242 (CGGTCTCATGTACCAGAAA; chemistry not given here) | – | 0.52 | –
s38243 (AGAAATTCCGGAACCAATT; chemistry not given here) | – | – | Score_si2 [3]: 0.8
s38293 (GTAACAACAAATACTCATA; chemistry not given here) | – | – | Score_si2 [3]: 1.65
s38294 (GGGTCCTGTTCATAAAGGA; chemistry not given here) | 1.14 | – | –
s38295 (GCAATTCTGACGACAATAT; chemistry not given here) | – | 1.57 | –
s38697 (GCAATTTGCTGTTGCCGAA; chemistry not given here) | – | -0.06 | –
s38698 (GGATTCTTGTTGGACTAAT; chemistry not given here) | -0.7 | – | –
s38699 (CCAGGAACTATGACACGTA; chemistry not given here) | – | – | Score_si2 [3]: 0.75
s38777 (GGCTCAAACTGGGAGTCAA; chemistry not given here) | – | – | Score_si2 [3]: 1.07
s38778 (CCCTTCCTCTATTCGAACA; chemistry not given here) | -0.27 | – | –
s38779 (CCAAGATGACTGTGAATAA; chemistry not given here) | – | 0.42 | –
s38816 (GAACATCTGGATCAAGAGA; chemistry not given here) | – | 1.02 | –
s38817 (GCAAATCTCTCTATCCTTA; chemistry not given here) | 0.06 | – | –
s49211 (sense GTTCCTGGGTGTTCACCTA; chemistry not given here) | 0.08 | – | –
s49212 (sense GATCGTTCCTGGGTGTTCA; chemistry not given here) | – | – | Score_si2 [3]: 0.94

Molecule | Score_si4 [3] | Score_si3 [3] | further results
s50141 (sense AGATACCTTTATGAATATA; chemistry not given here) [reference compound] | – | -0.76 | –
s50143 (sense AAATAAATCTGGTGCATTA; chemistry not given here) [reference compound] | -0.41 | – | –
s50641 (sense ACAACTCTGTGCACAACAA; chemistry not given here) | 0.17 | – | –
s50642 (sense CCTTCATGGTGGGACTGTA; chemistry not given here) | – | 0.69 | –
s51651 (sense TGAGCAGTGAGAACCCATA; chemistry not given here) | – | – | Score_si2 [3]: 1.55
s51652 (sense CCAGGCCCATTCTACAATA; chemistry not given here) | 0.04 | – | –
s51653 (sense GCACCTTGCAGGATTGGAA; chemistry not given here) | – | 0.68 | –
s194444 (sense GCTGCGTCTCCCTTCCAAA; chemistry not given here) [reference compound] | -0.58 | – | –
s194476 (sense GCATGCTGCTGGCAGATCA; chemistry not given here) | – | – | Score_si2 [3]: 1.47
s195060 (sense CCAGATCTATGAATTGGAA; chemistry not given here) | – | – | Score_si2 [3]: 1.92
s195061 (sense CTGTATGGCTTCTATATAA; chemistry not given here) | 1.03 | – | –
s195093 (sense AGCTGTCCCTCTTTGCTGT; chemistry not given here) [reference compound] | – | -0.16 | –
s195094 (sense CCTCTTCCACCGCTACTTC; chemistry not given here) [reference compound] | – | – | Score_si2 [3]: -0.76
s195100 (sense GGGTGAATGTAGACCCTGA; chemistry not given here) | – | 1.95 | –
s195299 (sense ACACATATGTGATCAAGCT; chemistry not given here) | 0.72 | – | –
s195642 (sense GGTGAGGACAAGTTCCAGT; chemistry not given here) | – | 0.49 | –
s195643 (sense CCCTAGGCGCTGGATTTTG; chemistry not given here) | 0.23 | – | –
s195938 (sense ATTTATCTCTGCATCGACA; chemistry not given here) [reference compound] | – | -0.51 | –
s195939 (sense GCGGCTGATTTATCTCTGC; chemistry not given here) [reference compound] | -0.22 | – | –
